Reference: US9562043B2 (EA Pharma Co., Ltd., priority 2012, dated 2017)

How the values were obtained:
[1] = molecular target: T1, human TRPA1 (Homo sapiens, UniProt O75762); test: Measurement of TRPA1 antagonist activity (intracellular calcium increase, FLIPR); format: cell-based; details: 293T cells transfected with human TRPA1 expression plasmid, allylisothiocyanate 20 μM stimulation, calcium fluorescence, read-out: antagonism hTRPA1
T1 construct: host or cells: human embryonic kidney-derived 293T cells, transient transfection with pcDNA3.1/zeo(+) plasmid
From the text: Measurement of TRPA1 Antagonist Activity
Human TRPA1 Expression Plasmid
As cDNA encoding human TRPA1 (GenBank accession No. […]), a commercially available product was purchased (manufactured by Kazusa DNA Research Institute, clone No.: pFN21AB7348, item No.: FHC07217). Using this as a template, full-length human TRPA1 gene was amplified using the primer sequences shown below, by reaction using DNA polymerase (manufactured by Stratagene, trade name: PfuUltra High-Fidelity DNA Polymerase).
A recognition site (underlined) of restriction enzyme HindIII was added to the 5′ side, and XbaI site (underlined) was added to the 3′ side, and GTT of the template sequence was changed to termination codon TAG (bold). The obtained double stranded DNA was enzyme-digested with HindIII and XbaI, and introduced into a multicloning site of expression plasmid pcDNA3.1/zeo(+) (manufactured by Invitrogen) to give a human TRPA1 expression plasmid.
Human embryonic kidney-derived 293T cells were cultured in Dulbecco's Modified Eagle Medium containing 10% fetal bovine serum, 10 unit penicillin, and 10 μg streptomycin, plated on a petri dish having a diameter of 10 cm at 3×10^6 cells, and cultured for 24 hr. A medium containing a reduced amount of serum (manufactured by Invitrogen, trade name: OPTI-MEM, 600 μL), a gene insertion reagent (manufactured by Mirus Bio, trade name: Mirus TransIT-293, 18 μL), and human TRPA1 expression plasmid (6 μg) were mixed, the total amount of the mixture was added to the cells on the petri dish to allow for gene transfer. The cells were recovered about 8 hr later, plated on a poly-D-lysine coated 384 well black/clear bottom plate at 7,500-12,000 cells/well, and cultured overnight.
Measurement of Intracellular Calcium Increase
The 384 well plate was recovered, and the medium was removed. A calcium-bonded fluorescent indicator (manufactured by Molecular Device, trade name: Calcium4 Assay Kit, 40 μL) dissolved in assay buffer (1×HBSS, 20 mM HEPES, pH 7.2) was added, and the cells were stained in a 37° C. incubator for 1 hr. The cells were taken out at room temperature and left standing for 15 min or more. A test substance (10 μL) was added by a 384 well type dispenser, and the mixture was incubated at room temperature for 10 min. Then, allylisothiocyanate (12.5 μL) at a final concentration of 20 μM was added by a fluorescence imaging plate reader (manufactured by Molecular Device, FLIPR), and changes in the relative fluorescence intensity were measured for 5 min.
Test Substance Preparation
The test substance was dissolved in dimethyl sulfoxide and serially diluted with an assay buffer containing 0.1% bovine serum albumin (1×HBSS, 20 mM HEPES, pH 7.2) to a 5-fold concentration of the evaluation concentration. Allylisothiocyanate, which is a known TRPA1 activator, was dissolved in dimethyl sulfoxide to 100 mM, and further diluted 5-fold (100 μM) of the final concentration, like the test substance.
Calculation of Antagonist Activity
Under the test substance-free conditions, the maximum variation range of the fluorescence intensity before and after allylisothiocyanate stimulation was defined to be 100% activity rate, and the variation range before and after buffer stimulation was defined as 0% activity rate. The activity rate on addition of the test substance was determined, and the numerical value obtained by subtracting the activity rate from 100 was defined to be an inhibitory rate. IC50, which is the concentration of the test substance necessary for reaching the 50% inhibitory rate, was calculated from the sigmoid approximate curve by a spreadsheet software Excel-Fit.

[2] = molecular target: T2, TRPA1 channel (Mus musculus, UniProt Q8BLA8); test: AITC-induced pain behavior evaluation test (mouse licking model); format: in vivo; details: male ICR mice; p.o. 30 mpk, 1 h before AITC (0.1%) s.c. to sole; licking time in 5 min vs vehicle
T2 construct: from tissue; host or cells: living male ICR mice (sole of the left leg, sensory nerves)
Procedure: AITC-Induced Pain Behavior Evaluation Test
To evaluate the effectiveness of the test substance in vivo, allylisothiocyanate (AITC)-induced pain behavior evaluation test was performed using mice.
AITC is a selective agonist of the TRPA1 channel, and causes a pain behavior by TRPA1 activation when administered to animal. Therefore, the intensity of the TRPA1 antagonist action of the test substance in the living body can be evaluated by measuring the pain behavior after AITC administration.
1. Administration of Test Substance to Animal
As the animal, male ICR mice (6- to 8-week-old) were used. The mice were fasted the previous day of the test. The test substance was intraperitoneally or orally administered for evaluation. In the case of intraperitoneal administration, the substance was administered 30 min before the AITC administration. In the oral administration, the substance was administered 60 min before the AITC administration.
2. AITC-Induced Pain Behavior Evaluation
3. Calculation of Inhibitory Rate
The licking time of the vehicle administration group in each test was taken as 100%, and the activity rate by administration of each test substance (Licking time on test substance administration/Licking time of vehicle administration group×100) was determined, and the numerical value obtained by subtracting the activity rate from 100 was calculated as an inhibitory rate.

T1 sequence (O75762 whole entry): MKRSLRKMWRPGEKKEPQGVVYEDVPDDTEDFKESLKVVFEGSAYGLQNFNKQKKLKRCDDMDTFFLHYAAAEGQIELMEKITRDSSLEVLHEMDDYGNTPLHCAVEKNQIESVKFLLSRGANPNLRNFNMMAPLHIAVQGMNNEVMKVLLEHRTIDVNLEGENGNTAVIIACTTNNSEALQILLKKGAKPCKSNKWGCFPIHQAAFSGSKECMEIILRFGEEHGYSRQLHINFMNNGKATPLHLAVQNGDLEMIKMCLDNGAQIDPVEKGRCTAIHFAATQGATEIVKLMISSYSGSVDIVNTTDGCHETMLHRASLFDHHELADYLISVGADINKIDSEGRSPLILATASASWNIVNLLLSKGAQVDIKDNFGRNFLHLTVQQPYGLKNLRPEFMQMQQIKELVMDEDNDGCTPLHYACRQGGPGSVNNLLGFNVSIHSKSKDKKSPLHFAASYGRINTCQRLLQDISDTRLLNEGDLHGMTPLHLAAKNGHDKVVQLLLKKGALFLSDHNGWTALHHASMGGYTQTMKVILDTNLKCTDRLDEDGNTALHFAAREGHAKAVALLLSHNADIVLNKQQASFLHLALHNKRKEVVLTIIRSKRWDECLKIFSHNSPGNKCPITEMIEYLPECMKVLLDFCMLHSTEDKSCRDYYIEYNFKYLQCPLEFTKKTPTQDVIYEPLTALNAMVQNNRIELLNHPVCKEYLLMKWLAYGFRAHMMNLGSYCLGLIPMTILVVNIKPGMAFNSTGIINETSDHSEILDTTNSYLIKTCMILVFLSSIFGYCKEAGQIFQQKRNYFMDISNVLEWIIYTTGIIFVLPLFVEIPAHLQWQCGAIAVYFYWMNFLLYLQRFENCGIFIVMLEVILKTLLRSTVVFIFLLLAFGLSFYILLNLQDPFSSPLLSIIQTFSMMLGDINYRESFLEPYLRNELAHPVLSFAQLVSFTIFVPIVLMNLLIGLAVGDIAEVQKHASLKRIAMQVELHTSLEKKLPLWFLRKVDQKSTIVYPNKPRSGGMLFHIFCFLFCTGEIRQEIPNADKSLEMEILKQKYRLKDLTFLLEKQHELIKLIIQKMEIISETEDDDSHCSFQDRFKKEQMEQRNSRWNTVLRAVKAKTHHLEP
T2 sequence (Q8BLA8 whole entry): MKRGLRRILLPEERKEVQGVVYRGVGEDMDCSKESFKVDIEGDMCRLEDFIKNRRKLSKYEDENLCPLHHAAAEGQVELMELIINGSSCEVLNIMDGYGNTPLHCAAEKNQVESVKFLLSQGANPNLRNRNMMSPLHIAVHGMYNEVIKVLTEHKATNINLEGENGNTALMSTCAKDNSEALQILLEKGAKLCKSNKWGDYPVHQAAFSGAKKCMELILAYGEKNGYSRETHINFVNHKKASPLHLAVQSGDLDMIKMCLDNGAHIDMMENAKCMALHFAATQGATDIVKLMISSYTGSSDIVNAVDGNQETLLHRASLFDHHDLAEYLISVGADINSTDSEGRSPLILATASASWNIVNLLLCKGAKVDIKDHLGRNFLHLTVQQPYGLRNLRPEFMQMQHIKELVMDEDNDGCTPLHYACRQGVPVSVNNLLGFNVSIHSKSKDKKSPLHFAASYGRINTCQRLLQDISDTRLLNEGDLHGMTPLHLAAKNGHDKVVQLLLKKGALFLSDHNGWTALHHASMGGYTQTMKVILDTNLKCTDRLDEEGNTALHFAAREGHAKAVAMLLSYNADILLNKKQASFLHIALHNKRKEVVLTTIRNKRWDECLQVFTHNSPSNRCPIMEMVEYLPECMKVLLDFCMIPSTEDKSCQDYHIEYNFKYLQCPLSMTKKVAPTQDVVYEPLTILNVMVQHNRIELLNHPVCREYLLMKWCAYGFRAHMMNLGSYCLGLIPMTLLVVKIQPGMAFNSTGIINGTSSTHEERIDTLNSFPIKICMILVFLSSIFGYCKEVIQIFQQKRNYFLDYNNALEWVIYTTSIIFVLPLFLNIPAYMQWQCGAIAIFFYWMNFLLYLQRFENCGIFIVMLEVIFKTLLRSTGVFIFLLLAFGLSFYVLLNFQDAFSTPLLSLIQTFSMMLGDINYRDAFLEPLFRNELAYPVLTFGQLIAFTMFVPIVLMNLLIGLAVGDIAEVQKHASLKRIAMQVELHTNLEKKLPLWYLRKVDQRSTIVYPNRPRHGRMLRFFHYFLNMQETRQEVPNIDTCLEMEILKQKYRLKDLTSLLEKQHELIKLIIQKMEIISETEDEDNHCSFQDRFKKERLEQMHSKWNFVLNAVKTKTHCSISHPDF

Row | IC50 [1] [nM] | mouse licking model (p.o. 1 h, 30 mpk) (% inh.) [2] [% inh.] | SMILES
1 | 140 | 36 | O=C(NCc1nc(-c2ccc(C(F)(F)F)cc2)cs1)[C@@H]1CCCN1S(=O)(=O)c1ccc(Cl)s1 [compound 1, (2S)-1-(5-chlorothiophene-2-sulfonyl)-N-({4-[4-(trifluoromethyl)phenyl]thiazol-2-yl}methyl)pyrrolidine-2-carboxamide]
2 | 90 | 43 | O=C(NCc1nc(-c2ccc(OC(F)(F)F)cc2)cs1)[C@@H]1C=CCN1S(=O)(=O)c1ccc(Cl)s1 [compound 20, (2S)-1-(5-chlorothiophene-2-sulfonyl)-N-({4-(4-(trifluoromethoxy)phenyl]-thiazol-2-yl}methyl)-3,4-didehydropyrrolidine-2-carboxamide]
3 | 100 | – | O=C(NCc1nc(-c2ccc(C(F)(F)F)cc2)cs1)[C@@H]1CCCN1S(=O)(=O)c1cccc(F)c1 [compound 50, (2S)-1-(3-fluorophenyl) sulfonyl-N-({4-(4-(trifluoro-methyl)phenyl]thiazol-2-yl)-methyl)pyrrolidine-2-carboxamide]
4 | 60 | – | O=C(NCc1nc(-c2ccc(C(F)(F)F)cc2)cs1)[C@@H]1CCCN1S(=O)(=O)c1ccc(F)c(F)c1 [compound 51, (2S)-1-(3,4-difluorophenyl)sulfonyl-N-({4-[4-(trifluoromethyl)-phenyl)thiazol-2-yl}methyl)pyrrolidine-2-carboxamide]
5 | 290 | – | O=C(NCc1nc(-c2ccc(C(F)(F)F)cc2)cs1)[C@@H]1CCCN1S(=O)(=O)c1ccc(F)c(Cl)c1 [compound 52, (2S)-1-(3-chloro-4-fluoro-phenyl)sulfonyl-N-({4-[4-(trifluoromethyl)phenyl]-thiazol-2-yl}methyl)pyrrolidine-2-carboxamide]
6 | 4600 | – | O=C(NCc1nc(-c2ccc(C(F)(F)F)cc2)cs1)[C@@H]1CCCN1S(=O)(=O)c1ccc(F)cc1F [compound 53, (2S)-1-(2,4-difluorophenyl)sulfonyl-N-{{4-[4-(trifluoromethyl)-phenyl]thiazol-2-yl}methyl)pyrrolidine-2-carboxamide]
7 | 170 | – | O=C(NCc1nc(-c2ccc(C(F)(F)F)cc2)cs1)[C@@H]1CCCN1S(=O)(=O)c1cc(F)cc(F)c1 [compound 54, (2S)-1-(3,5-difluorophenyl)sulfonyl-N-({4-[4-(trifluoromethyl)-phenyl]thiazol-2-yl}methyl)pyrrolidine-2-carboxamide]
